Measured values from ChEMBL document CHEMBL1201862, “PubChem BioAssay data set” (2004).
Calls of active or inactive are those of the source.

Assays:
[1] = target: Heat shock protein HSP 90-alpha (Homo sapiens, UniProt P07900); experiment: Luminescence-based dose response biochemical high throughput screening assay for inhibitors of the Heat Shock Protein 90 (HSP90). [Related pubchem assays: 1831 (Summary AID.), 1846 (Confirmation screen.), 1789 (Primary screen.)]
Protein RecA = target: T1, Protein RecA (Mycobacterium tuberculosis, UniProt P9WHJ3); experiment: Fluorescence Cell-Free Homogeneous Dose Retest to Identify Inhibitors of RecA-Intein Splicing Activity. [Related pubchem assays (depositor defined):AID2097, AID2223, AID489010, AID492950]; assay type: functional
T1 sequence (P9WHJ3 whole entry): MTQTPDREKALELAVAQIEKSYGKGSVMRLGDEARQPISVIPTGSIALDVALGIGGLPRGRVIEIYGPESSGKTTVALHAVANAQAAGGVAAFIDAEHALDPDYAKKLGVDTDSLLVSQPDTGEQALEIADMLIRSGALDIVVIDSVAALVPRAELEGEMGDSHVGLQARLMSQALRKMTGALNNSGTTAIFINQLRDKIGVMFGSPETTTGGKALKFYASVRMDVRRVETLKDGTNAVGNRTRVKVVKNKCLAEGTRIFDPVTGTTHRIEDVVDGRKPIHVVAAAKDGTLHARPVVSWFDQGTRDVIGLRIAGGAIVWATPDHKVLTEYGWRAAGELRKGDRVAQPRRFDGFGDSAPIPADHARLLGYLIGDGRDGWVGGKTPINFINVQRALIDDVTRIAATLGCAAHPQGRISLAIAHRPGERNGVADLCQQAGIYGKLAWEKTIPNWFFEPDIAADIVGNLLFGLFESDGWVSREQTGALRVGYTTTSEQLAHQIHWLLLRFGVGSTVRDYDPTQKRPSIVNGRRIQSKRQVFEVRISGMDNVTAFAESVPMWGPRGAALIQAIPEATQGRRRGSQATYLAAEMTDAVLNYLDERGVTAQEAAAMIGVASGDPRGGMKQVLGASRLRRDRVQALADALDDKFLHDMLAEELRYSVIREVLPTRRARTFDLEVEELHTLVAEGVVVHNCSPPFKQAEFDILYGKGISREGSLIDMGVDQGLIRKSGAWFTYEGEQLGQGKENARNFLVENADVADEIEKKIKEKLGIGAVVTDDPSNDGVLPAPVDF

[2] = target: T2, Microphthalmia-associated transcription factor (Homo sapiens, UniProt O75030); experiment: TRPM1 promoter luciferase signal decrease, dose response, MITF inhibitor project, cell-based, SK-MEL-5, cherry-picked, set 3 (AID 493073); assay type: functional
T2 sequence (O75030 whole entry): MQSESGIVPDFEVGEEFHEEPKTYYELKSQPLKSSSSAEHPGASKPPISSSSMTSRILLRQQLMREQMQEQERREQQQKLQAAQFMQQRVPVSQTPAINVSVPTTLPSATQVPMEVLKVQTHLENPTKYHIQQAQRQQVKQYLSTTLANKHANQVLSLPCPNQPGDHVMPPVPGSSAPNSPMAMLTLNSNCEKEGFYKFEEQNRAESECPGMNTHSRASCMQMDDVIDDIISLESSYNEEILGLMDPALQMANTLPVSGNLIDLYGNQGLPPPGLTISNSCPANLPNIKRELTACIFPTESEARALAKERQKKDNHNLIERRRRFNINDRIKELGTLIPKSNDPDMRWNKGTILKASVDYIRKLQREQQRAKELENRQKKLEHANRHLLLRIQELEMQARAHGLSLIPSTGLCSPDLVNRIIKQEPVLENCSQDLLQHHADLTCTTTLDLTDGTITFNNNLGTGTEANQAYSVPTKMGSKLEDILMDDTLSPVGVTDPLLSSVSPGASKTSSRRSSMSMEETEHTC

[3] = target: T3, Replicative DNA helicase DnaB (Mycobacterium tuberculosis, UniProt P9WMR3); experiment: DnaB intein splicing inhibitors, dose response, biochemical, cell-free fluorescence (AID 449749); assay type: functional
T3 sequence (P9WMR3 whole entry): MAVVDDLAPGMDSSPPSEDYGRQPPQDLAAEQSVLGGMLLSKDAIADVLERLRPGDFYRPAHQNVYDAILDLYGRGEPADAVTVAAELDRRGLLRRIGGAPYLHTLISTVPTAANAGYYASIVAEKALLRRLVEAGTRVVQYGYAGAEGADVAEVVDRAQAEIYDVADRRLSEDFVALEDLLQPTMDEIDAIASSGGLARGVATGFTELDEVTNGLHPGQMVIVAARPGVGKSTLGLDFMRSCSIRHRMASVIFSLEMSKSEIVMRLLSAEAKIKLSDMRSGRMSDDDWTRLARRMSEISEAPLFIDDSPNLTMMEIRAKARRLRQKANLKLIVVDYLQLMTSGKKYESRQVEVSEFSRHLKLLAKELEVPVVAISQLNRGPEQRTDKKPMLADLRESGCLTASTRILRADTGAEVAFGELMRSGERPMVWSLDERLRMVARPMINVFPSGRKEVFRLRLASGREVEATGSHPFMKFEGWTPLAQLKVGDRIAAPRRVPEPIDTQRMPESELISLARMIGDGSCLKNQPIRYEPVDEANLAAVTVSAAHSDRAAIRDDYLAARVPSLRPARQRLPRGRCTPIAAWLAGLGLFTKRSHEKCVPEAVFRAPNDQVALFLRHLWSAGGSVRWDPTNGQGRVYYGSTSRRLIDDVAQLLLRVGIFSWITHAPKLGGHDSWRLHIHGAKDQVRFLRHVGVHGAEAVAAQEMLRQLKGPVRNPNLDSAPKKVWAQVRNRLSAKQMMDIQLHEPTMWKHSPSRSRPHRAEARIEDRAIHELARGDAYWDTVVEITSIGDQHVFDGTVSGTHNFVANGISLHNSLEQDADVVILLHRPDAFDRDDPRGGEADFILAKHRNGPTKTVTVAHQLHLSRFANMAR

[4] = growth suppression of beta-catenin-knockout colon cells, dose response, cell-based, HCT116, human colon tumor (AID 1045); assay type: functional;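 also: HCT116 colon tumor cells with beta catenin knocked out; cells exposed to compound for 60 hours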
[5] = growth suppression of PTEN-null colon cells, dose response, cell-based, HCT116 PTEN knockout (AID 1047); assay type: functional;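 also: HCT116 colon tumor cells with PTEN knocked out; cells exposed to compound for 60 hours before readout; potency for loss of cell viability measured by luminescence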
BJ = experiment: cytotoxicity toward Ras-transformed BJeLR fibroblasts, dose response, cell-based, alamar blue fluorescence, cherrypicked samples (AID 2631); assay type: functional; conditions: Homo sapiens;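 also: confirmatory dose-response assay in RAS-dependent BJ fibroblasts engineered with TERT, LT and ST, with cytotoxicity read by fluorescence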

Structure (SMILES) | IC50 [1] | EC50 (Protein RecA) | AC50 [2] | AC50 [3] | EC50 [4] | EC50 [5] | EC50 (BJ)
CCCCn1c(NC(=O)c2ccccc2Cl)c(C#N)c2nc3ccccc3nc21 | 6.15 µM (active) |  |  |  |  |  | 
O=C1C=C(N(CCO)Cc2ccccc2)c2ccccc2C1=O |  | 0.402 µM (active) | 4.78 µM (active) | > 380 µM (inconclusive) |  |  | 
CCc1ccc(OCC(=O)N/N=C2\CC(=O)c3ccccc32)cc1 |  | 1.24 µM (active) |  | 6.09 µM (active) | 11.6 µM (active) | 10.2 µM (active) | 
O=C1c2cc(F)ccc2-n2c1nc1ccccc1c2=O | 0.433 µM (active) | > 380 µM (inactive) | 1.05 µM (active) | > 120 µM (inactive) |  |  | 
CCOC(=O)C1=C(c2ccc(OC)cc2)C(=O)c2ccccc2C1=O | 0.322 µM (active) | 1.83 µM (active) |  | 4.41 µM (active) | 2.33 µM (active) | 3.57 µM (active) | 0.605 µM (active)
CCC(=O)OCCNc1cc(Sc2nccn2C)c2nonc2c1[N+](=O)[O-] |  | 1.37 µM (active) | 7.16 µM (active) | 2.9 µM (active) | 3.98 µM (active) | 4.83 µM (active) | 
O=C1C(=O)c2ccccc2-c2ccccc21 [9,10-PHENANTHRENEQUINONE] |  | 7.45 µM (active) |  | 6.47 µM (active) |  |  | 2.74 µM (inconclusive)
COCCCNC(=O)c1ccc2c3c(onc13)-c1ccccc1C2=O |  | 13 µM (active) |  |  |  |  | 4.11 µM (active)
